The text below walks through data of US7342015B2, “Indole derivatives” (H. Lundbeck A/S, priority 2001, dated 2008).

In general, IC50 refers to the point on the concentration scale where inhibition reaches its midpoint. Lower therefore signals inhibition by little substance.

Assay [1] has as its target T1, cloned 5-HT1A receptors (Homo sapiens, UniProt P08908).
T1 construct: expressed in transfected cells; host or cells: HeLa cells (HA7)
T1 sequence (P08908 1-422): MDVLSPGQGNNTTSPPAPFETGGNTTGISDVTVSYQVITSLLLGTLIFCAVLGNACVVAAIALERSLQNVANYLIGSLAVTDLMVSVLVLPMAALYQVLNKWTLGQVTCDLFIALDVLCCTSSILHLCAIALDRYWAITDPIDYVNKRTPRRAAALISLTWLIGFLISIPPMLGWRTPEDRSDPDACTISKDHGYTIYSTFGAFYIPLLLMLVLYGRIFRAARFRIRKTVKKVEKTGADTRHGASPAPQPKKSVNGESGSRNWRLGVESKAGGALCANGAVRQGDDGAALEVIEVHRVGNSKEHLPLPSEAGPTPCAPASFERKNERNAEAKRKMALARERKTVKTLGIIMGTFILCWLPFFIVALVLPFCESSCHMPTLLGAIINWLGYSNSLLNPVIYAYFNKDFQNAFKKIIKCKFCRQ
Nature of the assay: 5-HT1A antagonistic activity: antagonism of 5-HT induced inhibition of forskolin induced cAMP accumulation in transfected HeLa cells (HA7). Type of assay: cell-based. Conditions: cloned 5-HT1A receptors in transfected HeLa cells (HA7). Here is the method: The 5-HT1A antagonistic activity of some of the compounds of the invention has been estimated in vitro at cloned 5-HT1A receptors, stably expressed in transfected HeLa cells (HA7). In this test, 5-HT1A antagonistic activity is estimated by measuring the ability of the compounds to antagonize the 5-HT induced inhibition of forskolin induced cAMP accumulation. The assay was performed as a modification of the method described by Pauwels, P. J. et al. Biochem. Pharmacol. 1993, 45, 375.
A general note: Cyclic AMP is a second messenger, typically raised through Gs and lowered through Gi signalling.

The target of assay [2] is T2, re-uptake of serotonin (3H-5-HT uptake into whole rat brain synaptosomes) (Rattus norvegicus, UniProt P31652).
T2 construct: whole rat brain synaptosomes; from tissue; host or cells: whole rat brain synaptosomes
Nature of the assay: Inhibition of 3H-5-HT uptake into rat brain synaptosomes. In kind it is biochemical. Conditions: in vitro. Here is the method:
The compounds of the invention have also been tested for their effect on re-uptake of serotonin in the following test:
Inhibition of ^3H-5-HT Uptake Into Rat Brain Synaptosomes.
Using this method, the ability of drugs to inhibit the accumulation of ^3H-5-HT into whole rat brain synaptosomes is determined in vitro. The assay was performed as described by Hyttel, J. Psychopharmacology 1978, 60, 13.

For assay [3], the target named is T1, cloned 5-HT1A receptors. The assay can be described thus: Inhibition of 3H-5-CT binding to human 5-HT1A receptors. Conditions: cloned human 5-HT1A receptors in transfected HeLa cells (HA7), 15 minutes at 37° C., pH 7.7. Here is the method: The affinity of the compounds of the invention to 5-HT1A receptors was determined by measuring the inhibition of binding of a radioactive ligand at 5-HT1A receptors as described in the following test:
Inhibition of ^3H-5-CT Binding to Human 5-HT1A Receptors.
By this method, the inhibition by drugs of the binding of the 5-HT1A agonist ^3H-5-carboxamido tryptamine (3H-5-CT) to cloned human 5-HT1A receptors stably expressed in transfected HeLa cells (HA7) (Fargin, A. et al. J. Biol. Chem. 1989, 264, 14848) is determined in vitro. The assay was performed as a modification of the method described by Harrington, M. A. et al. J. Pharmacol. Exp. Ther. 1994, 268, 1098. Human 5-HT1A receptors (40 μg of cell homogenate) were incubated for 15 minutes at 37° C. in 50 mM Tris buffer at pH 7.7 in the presence of ^3H-5-CT. Non-specific binding was determined by including 10 μM of metergoline. The reaction was terminated by rapid filtration through Unifilter GF/B filters on a Tomtec Cell Harvester. Filters were counted in a Packard Top Counter.

Molecules are shown by their SMILES.

T2 sequence (P31652 whole entry): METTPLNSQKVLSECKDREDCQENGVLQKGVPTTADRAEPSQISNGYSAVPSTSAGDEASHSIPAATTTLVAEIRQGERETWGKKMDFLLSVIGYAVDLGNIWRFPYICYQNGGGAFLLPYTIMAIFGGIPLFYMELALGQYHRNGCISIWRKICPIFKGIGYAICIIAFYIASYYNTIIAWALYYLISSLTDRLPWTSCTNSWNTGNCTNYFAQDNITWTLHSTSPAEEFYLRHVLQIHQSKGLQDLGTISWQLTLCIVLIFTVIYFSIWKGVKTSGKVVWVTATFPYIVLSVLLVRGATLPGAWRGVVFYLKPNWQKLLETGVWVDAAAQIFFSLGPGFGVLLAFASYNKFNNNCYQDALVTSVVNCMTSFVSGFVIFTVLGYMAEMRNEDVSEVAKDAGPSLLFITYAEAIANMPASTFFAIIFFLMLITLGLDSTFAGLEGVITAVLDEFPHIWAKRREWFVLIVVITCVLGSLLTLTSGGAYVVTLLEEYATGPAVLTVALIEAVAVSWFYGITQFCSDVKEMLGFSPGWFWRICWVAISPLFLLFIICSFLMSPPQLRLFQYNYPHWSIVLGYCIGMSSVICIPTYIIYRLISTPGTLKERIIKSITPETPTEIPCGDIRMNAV

With `N#Cc1c(C(F)(F)F)cc(C2CC2)nc1SCCN1CCN(c2cccc3[nH]ccc23)CC1` [Compound 2e, 2-{2-[4-(1H-Indol-4-yl)piperazin-1-yl]ethylsulfanyl}-4-trifluoromethyl-6-cyclopropylnicotinonitrile], the IC50 in assay [1] is under 7000 nM; in assay [2] it was under 20 nM; in assay [3] it was under 50 nM.
Regarding `Cc1cc(C)nc(SCCN2CCN(c3cccc4[nH]ccc34)CC2)n1` [Compound 2o, 4,6-Dimethyl-2-{2-[4-(1H-indol-4-yl)piperazin-1-yl]ethylsulfanyl}pyrimidine], the IC50 in assay [2] is under 20 nM; in assay [3] it was under 50 nM.
`Cc1cc(C)c(C#N)c(SCCCN2CCN(c3cccc4[nH]ccc34)CC2)n1` [Compound 1l, 2-{3-[4-(1H-Indol-4-yl)piperazin-1-yl]propylsulfanyl}-4,6-dimethylnicotinonitrile]: the IC50 in assay [1] is under 7000 nM; in assay [2], under 20 nM.
For `Cc1cc(C)c(C#N)c(SCCN2CCN(c3cccc4[nH]ccc34)CC2)n1` [Compound 1a, 2-{2-[4-(1H-Indol-4-yl)piperazin-1-yl]ethylsulfanyl}-4,6-dimethylnicotinonitrile], the IC50 in assay [1] was under 7000 nM; in assay [2], under 20 nM.
With `Cc1ccc(C#N)c(SCCN2CCN(c3cccc4[nH]ccc34)CC2)n1` [Compound 1d, 2-{2-[4-(1H-Indol-4-yl)piperazin-1-yl]ethylsulfanyl}-6-methylnicotinonitrile], the values for the IC50 in assay [1], in assay [2] and in assay [3] were under 7000 nM, under 20 nM and under 50 nM, respectively.
On to `N#Cc1cccnc1SCCN1CCN(c2cccc3[nH]ccc23)CC1` [Compound 2b, 2-{2-[4-(1H-Indol-4-yl)piperazin-1-yl]ethylsulfanyl}nicotinonitrile], for which the figures for the IC50 in assay [1], in assay [2] and in assay [3] were under 7000 nM, under 20 nM and under 50 nM, respectively.
